Data: the NIST ThermoML archive (doi:10.1016/j.jct.2016.09.027)
Numbers after ± are expanded uncertainties.

Experiment: mn = molality of the nth substance listed, in mol/kg
Settings: 100 kPa, Liquid; for speed of sound: Frequency=3 MHz, Sing-around technique in a fixed-path interferometer; for mass density: Vibrating tube method

C[C@H]1COc2c(N3CCN(C)CC3)c(F)cc3c(=O)c(C(=O)O)cn1c23 [levofloxacin] + O
speed of sound (288.15 K, m1 = 0.005): 1467.4 ± 1.6 m/s
speed of sound (288.15 K, m1 = 0.01): 1468.3 ± 1.6 m/s
speed of sound (288.15 K, m1 = 0.03): 1471.4 ± 1.6 m/s
mass density (288.15 K, m1 = 0.005): 1001.5 ± 2 kg/m3
mass density (288.15 K, m1 = 0.01): 1002.04 ± 2 kg/m3
mass density (288.15 K, m1 = 0.03): 1004.52 ± 2 kg/m3
speed of sound (293.15 K, m1 = 0.005): 1483.2 ± 1.6 m/s
speed of sound (293.15 K, m1 = 0.01): 1484 ± 1.6 m/s
speed of sound (293.15 K, m1 = 0.03): 1487.2 ± 1.6 m/s
mass density (293.15 K, m1 = 0.005): 1000.61 ± 2 kg/m3
mass density (293.15 K, m1 = 0.01): 1001.14 ± 2 kg/m3
mass density (293.15 K, m1 = 0.03): 1003.59 ± 2 kg/m3
speed of sound (298.15 K, m1 = 0.005): 1497.3 ± 1.6 m/s
speed of sound (298.15 K, m1 = 0.01): 1498.1 ± 1.6 m/s
speed of sound (298.15 K, m1 = 0.03): 1500.9 ± 1.6 m/s
mass density (298.15 K, m1 = 0.005): 999.444 ± 2 kg/m3
mass density (298.15 K, m1 = 0.01): 999.956 ± 2 kg/m3
mass density (298.15 K, m1 = 0.03): 1002.39 ± 2 kg/m3
speed of sound (303.15 K, m1 = 0.005): 1509.7 ± 1.6 m/s
speed of sound (303.15 K, m1 = 0.01): 1510.4 ± 1.6 m/s
speed of sound (303.15 K, m1 = 0.03): 1513 ± 1.6 m/s
mass density (303.15 K, m1 = 0.005): 998.037 ± 2 kg/m3
mass density (303.15 K, m1 = 0.01): 998.556 ± 2 kg/m3
mass density (303.15 K, m1 = 0.03): 1000.96 ± 2 kg/m3
speed of sound (308.15 K, m1 = 0.005): 1520.3 ± 1.6 m/s
speed of sound (308.15 K, m1 = 0.01): 1521 ± 1.6 m/s
speed of sound (308.15 K, m1 = 0.03): 1523.4 ± 1.6 m/s
mass density (308.15 K, m1 = 0.005): 996.415 ± 2 kg/m3
mass density (308.15 K, m1 = 0.01): 996.926 ± 2 kg/m3
mass density (308.15 K, m1 = 0.03): 999.305 ± 2 kg/m3
